pEC50, pIC50, pKi: −log10 of the molar value. Where a name gives a salt, the structure may show the parent alone.

Data set [1] concerns the target T1, human 5HT1A receptor (Homo sapiens, UniProt P08908).
T1 construct: expressed in transfected cells; host or cells: CHO cells (stably transfected)
T1 sequence (P08908 1-422): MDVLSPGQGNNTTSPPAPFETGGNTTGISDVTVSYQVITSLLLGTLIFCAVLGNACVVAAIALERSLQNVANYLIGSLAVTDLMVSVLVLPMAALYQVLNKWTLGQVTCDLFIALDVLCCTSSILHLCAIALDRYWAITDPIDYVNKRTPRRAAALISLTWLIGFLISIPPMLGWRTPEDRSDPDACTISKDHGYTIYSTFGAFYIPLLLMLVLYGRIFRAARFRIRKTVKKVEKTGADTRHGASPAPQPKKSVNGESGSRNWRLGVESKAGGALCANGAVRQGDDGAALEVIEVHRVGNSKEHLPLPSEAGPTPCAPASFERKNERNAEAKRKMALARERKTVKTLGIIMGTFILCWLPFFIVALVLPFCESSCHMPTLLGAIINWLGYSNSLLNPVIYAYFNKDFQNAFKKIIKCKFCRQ
The data set can be described thus: 5-HT1A Receptor Binding Assay ([3H] 8-OH-DPAT displacement). Conditions: displacement of [3H] 8-OH-DPAT, CHO cells stably transfected with human 5HT1A receptor. The method, then: 5-HT1A Receptor Binding Assay
High affinity for the serotonin 5-HT1A receptor was established by testing a compound's ability to displace [^3H] 8-OH-DPAT binding in CHO cells stably transfected with the human 5HT1A receptor. Stably transfected CHO cells are grown in DMEM containing 10% heat inactivated FBS and non-essential amino acids. Cells are scraped off the plate, transferred to centrifuge tubes, and washed twice by centrifugation (2000 rpm for 10 min., 4° C.) in buffer (50 mM Tris pH 7.5). The resulting pellets are aliquoted and placed at −80° C. On the day of assay, the cells are thawed on ice and resuspended in buffer. The binding assay is performed in a 96 well microtiter plate in a total volume of 250 μL. Non-specific binding is determined in the presence of […] 5-HT, final ligand concentration is 1.5 nM. Following a 30 minute incubation at room temperature, the reaction is terminated by the addition of ice cold buffer and rapid filtration through a GF/B filter presoaked for 30 minutes in 0.5% PEI. Compounds are initially tested in a single point assay to determine percent inhibition at […], and Ki values are determined for the active compounds.
A general note: Loss of bound radioactivity is the signal in a displacement assay; it reports binding, not function.

Data set [2] has as its target T1, human 5HT1A receptor. The data set can be described thus: 5-HT1A Receptor Intrinsic Activity Assay (reversal of forskolin-stimulated cAMP). The conditions noted are these: for Emax: agonist activity, cAMP, forskolin-stimulated CHO cells with human 5-HT1A receptor. It counts as cell-based. Here is the method:
5-HT1A Receptor Intrinsic Activity Assay
The intrinsic activity of compounds of the present invention was established by testing the claimed compounds ability to reverse the stimulation of cyclic adenosinemonophosphate (cAMP) in CHO cells stably transfected with the human 5-HT1A receptor.
Stably transfected CHO cells were grown in DMEM containing 10% heat inactivated FBS and non-essential amino acids. The cells are plated at a density of […] per well in a 24 well plate and incubated for 2 days in a CO2 incubator. On the second day, the media is replaced with 0.5 mL treatment buffer (DMEM+25 mM HEPES, 5 mM theophylline, 10 μM pargyline) and incubated for 10 minutes at 37° C. Wells are treated with forskolin (1 μM final concentration) followed immediately by the test compound (0.1 and 1 μM for initial screen) and incubated for an additional 10 minutes at 37° C. The reaction is terminated by removal of the media and addition of 0.5 mL ice cold assay buffer (supplied in the RIA kit). Plates are stored at −20° C. prior to assessment of cAMP formation by RIA. EC50 values are determined for the active test compounds. Compounds shown to have no agonist activities (Emax=0%) are further analyzed for their ability to reverse agonist induced activity. In separate experiments, 6 concentrations of antagonist are preincubated for 20 minutes prior to the addition of agonist and forskolin. Cells are harvested as described above. The cAMP kit is supplied by Amersham and the RIA is performed as per kit instructions, and calculations of IC50 performed by GraphPad Prism.

A word on the melting point: it is the temperature of the solid-liquid transition. For `COc1ccccc1N1CCN(CCN(Cc2cccc3ccccc23)C(=O)C2CCCCC2)CC1` (as salt: fumarate) [Compound 4, Cyclohexanecarboxylic acid{2-[4-(2-methoxy-phenyl)-piperazin-1-yl]-ethyl}-naphthalen-1-ylmethl-amide], the melting point was in the range of 204 to 206 °C.
Same read-out and setting: the value for `COc1ccccc1N1CCN(CCN(CCCc2ccccc2)C(=O)C2CCCCC2)CC1` (as salt: fumarate) [Compound 8, Cyclohexanecarboxylic acid-{2-[4-(2-methoxy-phenyl)-piperazin-1-yl]-ethyl}-(3-phenyl-propyl)-amide] was 103 to 105 °C.
The pKi is the negative decadic logarithm of the Ki, by convention in mol/L. Read a high pKi as a low Ki. In general, Emax refers to the greatest response seen or fitted, relative to the assay's reference. For orientation: pEC50 means the EC50 on a negative log10 scale, so that one unit is a factor of ten. On human 5HT1A receptor [1], `COc1ccccc1N1CCN(CCN(Cc2ccccc2)C(=O)C2CCCCC2)CC1` [Compound 2, Cyclohexanecarboxylic acid benzyl-{2-[4-(2-methoxy-phenyl)-piperazin-1-yl]-ethyl}-amide] showed a pKi of 8.74. Besides, at human 5HT1A receptor [2], the maximum response (Emax) is 36%. For the same compound, the negative-log EC50 (pEC50) on human 5HT1A receptor [2] (agonist mode, reversal of forskolin-stimulated cAMP in CHO cells) was 8.38.
As to `COc1ccccc1N1CCN(CCNC(=O)CCc2ccccc2)CC1` (as salt: fumaric acid salt) [Compound 7, N-{2-[4-(2-Methoxy-phenyl)-piperazin-1-yl]-ethyl}-3-phenyl-propionamide], the melting point was in the range of 107 to 108 °C.
Same read-out and setting: the result for `COc1ccccc1N1CCN(CCN(Cc2ccccc2)C(=O)C2CCCCC2)CC1` (as salt: fumarate) [Compound 2, Cyclohexanecarboxylic acid benzyl-{2-[4-(2-methoxy-phenyl)-piperazin-1-yl]-ethyl}-amide] reads 144 to 146 °C.
In general, pIC50 refers to the IC50 on a negative log10 scale, so that one unit is a factor of ten. On human 5HT1A receptor [1], `COc1ccccc1N1CCN(CCN(Cc2ccc3ccccc3c2)C(=O)C2CCCCC2)CC1` [Compound 6, Cyclohexanecarboxylic acid-{2-[4-(2-methoxy-phenyl)-piperazin-1-yl]-ethyl}-naphthalen-2-ylmethyl-amide] showed a pKi of 8.92. For the same compound, the maximal effect (Emax) at human 5HT1A receptor [2] was determined as 0%. Further, the pIC50 on human 5HT1A receptor [2] (antagonist mode, reversal of agonist induced activity, preincubated 20 minutes before agonist and forskolin) was 7.62.
For `COc1ccccc1N1CCN(CCN(CCCc2ccccc2)C(=O)C2CCCCC2)CC1` [Compound 8, Cyclohexanecarboxylic acid-{2-[4-(2-methoxy-phenyl)-piperazin-1-yl]-ethyl}-(3-phenyl-propyl)-amide], the negative logarithm of the Ki (pKi) on human 5HT1A receptor [1] is 7.70. Besides, at human 5HT1A receptor [2], the Emax came out at 77%.
Compound `COc1ccccc1N1CCN(CCNC(=O)c2ccccc2)CC1` (as salt: fumaric acid salt) [Compound 1, N-{2-[4-(2-Methoxy-phenyl)-piperazin-1-yl]-ethyl}-benzamide] displayed a melting point of 136 to 138 °C.
`COc1ccccc1N1CCN(CCN(Cc2cccc3ccccc23)C(=O)C2CCCCC2)CC1` [Compound 4, Cyclohexanecarboxylic acid{2-[4-(2-methoxy-phenyl)-piperazin-1-yl]-ethyl}-naphthalen-1-ylmethl-amide] had a pKi on human 5HT1A receptor [1] of 7.59. For the same compound, the Emax on human 5HT1A receptor [2] turned out to be 88%.

These data come from patent US6344458B1, “Piperazine ethylamide derivatives” (American Home Products Corporation, priority 1998, dated 2002).
